Values quoted from earlier work as cited in patent US20060194715A1, “Proteins encoded by ble genes and antibiotics from the bleomycin family” (priority 2002, published 2006).
Several values for one entry are separate records, joined by “and”; a condition that tells them apart may be missing. Equal values may be shown once. Read-outs that look alike come from different tables or passages of the source.

Biological target: T1, Sh ble protein (Streptoalloteichus hindustanus, UniProt P17493)
T1 sequence (P17493 1-124): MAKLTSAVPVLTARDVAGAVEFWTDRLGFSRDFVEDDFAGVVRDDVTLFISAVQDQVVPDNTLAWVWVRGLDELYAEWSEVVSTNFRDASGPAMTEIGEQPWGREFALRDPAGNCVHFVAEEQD

Question: Which results are given for bleomycin?
Answer: Kd (first bleomycin molecule bound, read-out: first affinity (single molecule of bleomycin bound to Sh ble dimer)): ~600 nM; Kd (second bleomycin molecule bound, read-out: second affinity (two molecules of bleomycin bound to Sh ble dimer)): ~100 nM and ≤ 100 nM
